Reference: US5244916A, “Inhibition of respiratory burst using posttranslational modification inhibitors” (The Scripps Research Institute, priority 1992, dated 1993)

Assays:
[1] = HL-60 cell viability by propidium iodide uptake (flow cytometry); conditions: human, hl-60 cells
Method: (§1) HL-60 cells were maintained in stationary culture in RPMI 1640 medium (Gibco, Grand Island, NY) containing 10% fetal bovine serum at 37° C in an atmosphere of 95 air and 5% CO2. The cells (about 8×10^5 /ml) were differentiated into neutrophil-like cells by treatment with 1.3% DMSO for six days (Harris, et al., J. Leukocyte Biol. 37: 407-422 (1985)). […] […] In studies of the protective effect of mevalonic acid, the compound was added as the mevalonolactone (Sigma Chemical Co., St. Louis, MO) at a concentration of 1 mM to the cell culture on days 4 to 6. Similarly, cholesterol was added in the form of LDL prepared according to the method of Curtiss and Edgington (Curtiss, et al., J. Biol. Chem. 257: 15213-15221 (1991)) at a final concentration of 50 μg/ml; ubiquinone (Sigma Chemical Co., St. Louis, MO) was added as Coenzyme Q-10 at a final concentration of 0.5 mM; and dolichol (Sigma Chemical Co., St. Louis, MO) was added as a dispersion in phosphatidylcholine at a final concentration of 0.5 mM (Cutts, et al., J. Cell Physiol. 139: 550-555 (1989)).
(§2) Cell viability was determined by uptake of propidium iodide (537-059; Calbiochem-Behring Corp., La Jolla, CA), detected from the emission fluorescence at 625/35 nm using a DM560 dichronic mirror (Krishan, J. Cell. Biol. 66: 188-192 (1975)). Expression of N-formyl peptide receptor was determined using fluorescein-labeled N-CHONle-Leu-Phe-Nle-Tyr-Lys (Molecular Probes, Inc., Eugene, OR) essentially by the method of Sklar and Finney (Sklar and Finney, Cytometry 3: 161-165 (1982)). Specificity of ligand binding was determined in the presence of 4 mM unlabeled T-boc peptide. CD14 expression was determined using monoclonal antibody 3C10 at a dilution of 1:1,000 (see Goyert and Ferrero, in Leucocyte Typing III: White Cell Differentiation Antigens, McMichael, ed., Oxford Univ. Press, NY, pp. 613-619 (1988)), with detection using a fluorescein-labeled secondary antibody. Flow cytometric analyses were performed on a FACSIV (registered trademark of Becton-Dickinson, San Jose, CA) equipped with a 2W argon laser (Coherent Inc., Palo Alto, collected in list mode and analyzed using the Consort 30 program (Becton-Dickinson, San Jose, CA) after collecting 10,000 events.

[2] = tested on: HL-60 cells; assay: as above
Method: as §1, §2

[3] = tested on: CD14 antigen; assay: HL-60 differentiation: CD14 antigen expression (flow cytometry); format: cell-based; conditions: compactin-treated cells
Method: HL-60 cells were maintained in stationary culture in RPMI 1640 medium (Gibco, Grand Island, NY) containing 10% fetal bovine serum at 37° C in an atmosphere of 95 air and 5% CO2. The cells (about 8×10^5 /ml) were differentiated into neutrophil-like cells by treatment with 1.3% DMSO for six days (Harris, et al., J. Leukocyte Biol. 37: 407-422 (1985)). The cells were treated with the indicated levels of compactin or lovastatin by addition of a 1,000-fold concentrated stock solution to the appropriate concentration on day 4 of differentiation. […]
Cell viability was determined by uptake of propidium iodide (537-059; Calbiochem-Behring Corp., La Jolla, CA), detected from the emission fluorescence at 625/35 nm using a DM560 dichronic mirror (Krishan, J. Cell. Biol. 66: 188-192 (1975)). Expression of N-formyl peptide receptor was determined using fluorescein-labeled N-CHONle-Leu-Phe-Nle-Tyr-Lys (Molecular Probes, Inc., Eugene, OR) essentially by the method of Sklar and Finney (Sklar and Finney, Cytometry 3: 161-165 (1982)). Specificity of ligand binding was determined in the presence of 4 mM unlabeled T-boc peptide. […]
HL-60 differentiation was assessed using two distinct markers: appearance of N-formyl peptide receptors and appearance of the CD14 antigen.

[4] = tested on: peripheral blood neutrophils; assay: Respiratory burst of peripheral blood neutrophils in response to FMLP after short-term compactin; format: cell-based; conditions: 10 μM, up to two hours
[5] = tested on: NADPH oxidase; assay: Cell-free oxidase system with compactin included in the assay cuvette; format: biochemical; conditions: 10 μM compactin in the assay cuvette
Method: To assess O2 --formation using HL-60 membrane and cytosol, the cell-free system of Curnutte, et al. (Curnutte, et al., J. Biol. Chem. 262: 5563-5569 (1987); Curnutte, et al.,m J. Biol. Chem. 262: 6450-6452 (1987)) was utilized. Briefly, HL-60 membrane pellet (50-60μg) or human neutrophil membrane (6.35×10^6 cell equivalents) was added to a cuvette containing 100 μM cytochrome c (type III, Sigma Chemical Co., St. Louis, MO), 6.25 mM MgCl2, 93 mM KCl, 2.8 mM NaCl, 9.3 mM Pipes pH 7.3, 0.8mM ATP, 0.16 mM NADPH, 10 μM GTPgammaS, 225 μg HL-60 cytosol, or 250 μg ([…]; cell equivalents) of human neutrophil cytosol and ±300μg/ml SOD (Sigma Chemical Co., St. Louis, MO). After a three-minute equilibration at 25° C., the formation of O2 --was initiated by the addition of 100 μM SDS. O2 --generation was monitored continuously as the SOD-sensitive reduction of cytochrome c at 550 nm. Human neutrophil plasma membranes (gamma-GSP) and cytosol (GSS) were prepared as described in (Curnutte, et al., suora (1987)).
Treatment of peripheral blood neutrophils with 10 μM compactin for up to two hours produced no effect upon the ability of these cells to support a respiratory burst in response to FMLP. […] It seems unlikely that both compounds would randomly produce similar nonspecific toxic effects on the NADPH oxidase.

[6] = tested on: Rap1; assay: Western blot of Rap1 in membrane and cytosol fractions of HL-60 cells; format: cell-based; conditions: 10 μM compactin
Method: Western blots were performed as described in Bokoch, et al., Cell Biol. 106: 1927-1936 (1988).
The ability of the concentrations of compactin used to inhibit endogenous HL-60 cell LMWG isoprenylation was assessed. Inhibition of Rapl isoprenylation was determined in two ways. Western blotting was used to evaluate the presence of Rap1 in cytosol or membrane fractions of compactin-treated vs. untreated cells (see FIG. 1). […] HL-60 cells were treated with ±10 μM compactin, and membrane and cytosol fractions were prepared as described in Example 1. Equal amounts of membrane protein (100 μg) and cytosol protein (70 μg), respectively,were loaded in each lane. Total membrane protein obtained in this experiment from about 3×10^8 cells was about 3 mg and cytosolic protein was about 2 mg. The samples were analyzed on 15% SDS-polyacrylamide gels (SDS-PAGE), transferred to nitrocellulose, and blotted with specific anti-Rapl antibody, R61, at 1:500 dilution. Detection was with ^125 I-goat anti-rabbit IgG and autoradiograms were exposed for 24-36 hours with intensifying screen at -70° C.

`CC[C@H](C)C(=O)O[C@H]1CCC=C2C=C[C@H](C)[C@H](CC[C@@H]3C[C@@H](O)CC(=O)O3)[C@H]21` [compactin] gave a viability at 0.4 µM [1] of 100 ± 1.6%, a viability at 2 µM [1] of 95 ± 1.2% and a viability at 4 µM [1] of 97 ± 0.9%. For the same compound, the viability at 10 µM [1] was 96 ± 1.2%, the HL-60 cell viability ([2]; compactin treatment, concentrations of the studies) was “not affected” and the “cell viability when inhibitor added at day 1 of differentiation” value ([2]; higher concentrations of each drug) was “somewhat decreased”. For the same compound, the CD14 expression [3] was “normal”, the “effect on respiratory burst of peripheral blood neutrophils” value [4] was “no effect” and the “inhibition of O2- formation, cell-free” value [5] was “did not inhibit”. The “Rap1 membrane association after treatment” value [6] was “a portion of this GTP-binding protein was still membrane associated”, the “appearance of Rap1 in the cytosolic fraction” value [6] was “large amounts” and the “total Rap1 previously associated with the membrane pellet now soluble” value ([6]; densitometry, n=3) was 60-70%.
